Measurements from the supplement of paper PMC10307832.

Assays:
Assay in all cases: relative viability (nuclei count vs DMSO), 5 days (fraction); higher = more cells survive
[1] = compound: C1COCCN1C2=NC(=NC3=C2OC4=C3C=CC=N4)C5=CC(=CC=C5)NC(=O)C6=CN=C(C=C6)N + N=C(N)NC(=N)NCCc1ccccc1 [Phenformin] (partner 250 µM)
In short: (§1)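 Lung cancer cell lines, seeded in 1536-well plates, were treated the following day by pin tool with a single drug or with five library-drug doses (not always all listed) in √10 steps on top of a fixed anchor-drug dose. Cells were fixed and nuclei stained in one step after 5 days, and nuclei were counted. Relative viability is the nuclei count for treated wells divided by that for vehicle wells, reported as medians of duplicate plates.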

[2] = compound: Nc1ccccc1NC(=O)c1ccc(CNC(=O)OCc2cccnc2)cc1 [Entinostat] + Cc1nc(Nc2ncc(C(=O)Nc3c(C)cccc3Cl)s2)cc(N2CCN(CCO)CC2)n1 [Dasatinib] (partner 0.075 µM)
In short: as §1

[3] = compound: C1COCCN1C2=NC(=NC3=C2OC4=C3C=CC=N4)C5=CC(=CC=C5)NC(=O)C6=CN=C(C=C6)N + CC(C)C[C@H](NC(=O)[C@H](Cc1ccccc1)NC(=O)c1cnccn1)B(O)O [Bortezomib] (partner 0.002 µM)
In short: as §1

[4] = compound: C1COCCN1C2=NC(=NC3=C2OC4=C3C=CC=N4)C5=CC(=CC=C5)NC(=O)C6=CN=C(C=C6)N + C[C@]1(O)C[C@@H](c2nc(-c3ccc4ccc(-c5ccccc5)nc4c3)c3c(N)nccn32)C1 [Linsitinib] (partner 1 µM)
In short: as §1

Cell Line	relative viability ([1]; first compound 0.02 µM)	relative viability ([1]; first compound 0.06325 µM)	relative viability ([1]; first compound 0.2 µM)	relative viability ([1]; first compound 0.6325 µM)	relative viability ([1]; first compound 2 µM)	relative viability ([2]; first compound 0.02 µM)	relative viability ([2]; first compound 0.06325 µM)	relative viability ([2]; first compound 0.2 µM)	relative viability ([2]; first compound 0.6325 µM)	relative viability ([2]; first compound 2 µM)	relative viability ([3]; first compound 0.02 µM)	relative viability ([3]; first compound 0.06325 µM)	relative viability ([3]; first compound 0.2 µM)	relative viability ([3]; first compound 0.6325 µM)	relative viability ([3]; first compound 2 µM)	relative viability ([4]; first compound 0.02 µM)	relative viability ([4]; first compound 0.06325 µM)	relative viability ([4]; first compound 0.2 µM)	relative viability ([4]; first compound 0.6325 µM)	relative viability ([4]; first compound 2 µM)
NCI-H1975	0.394	0.416	0.388	0.37	0.243	0.352	0.307	0.316	0.199	0.134	0.352	0.419	0.397	0.359	0.299	0.882	0.983	0.897	0.905	0.476
NCI-H2023	0.424	0.457	0.346	0.32	0.156	0.55	0.439	0.326	0.135	0.0809	0.995	1.13	0.914	0.75	0.48	0.639	0.755	0.602	0.543	0.333
ChaGo-K-1	0.464	0.583	0.533	0.456	0.459	0.709	0.554	0.671	0.526	0.553	0.938	1.01	0.568	1.12	0.746	–	–	–	–	–
COR-L 105	0.402	0.517	0.404	0.41	0.274	0.337	0.407	0.36	0.344	0.232	0.655	0.872	0.657	0.66	0.474	0.984	1.03	0.822	0.905	0.672
NCI-H2170	0.427	0.439	0.408	0.407	0.388	0.532	0.636	0.69	0.558	0.365	–	–	–	–	–	–	–	–	–	–
A549	–	0.159	0.142	0.206	0.063	–	–	–	–	–	–	–	–	–	–	0.59	0.636	0.6	0.455	0.283
NCI-H1993	0.483	0.498	0.501	0.513	0.522	0.747	0.591	0.535	0.496	0.259	1.2	1.13	0.967	0.891	0.893	0.768	0.627	0.689	0.74	0.667
Calu-6	–	–	–	–	–	–	–	–	–	–	1.1	1.18	0.919	0.957	0.806	0.943	1.14	0.975	0.9	0.527
NCI-H1623	0.634	0.587	0.6	0.562	0.407	0.644	0.525	0.478	0.412	0.366	–	–	–	–	–	–	–	–	–	–
NCI-H322M	0.781	0.786	0.683	0.735	0.508	0.271	0.274	0.275	0.298	0.313	1.2	1.25	1.25	1.24	0.965	0.817	0.981	0.884	0.924	0.759
